pKi: −log10 of the molar value. Values belong to the molecule of their own block, whether it stands above or below them.
Legend:
5-HT1A receptor = target: T1, 5-HT1A receptor (Rattus norvegicus, UniProt P19327); assay: 5-HT1A binding
T1 construct: from tissue
T1 sequence (P19327 1-422): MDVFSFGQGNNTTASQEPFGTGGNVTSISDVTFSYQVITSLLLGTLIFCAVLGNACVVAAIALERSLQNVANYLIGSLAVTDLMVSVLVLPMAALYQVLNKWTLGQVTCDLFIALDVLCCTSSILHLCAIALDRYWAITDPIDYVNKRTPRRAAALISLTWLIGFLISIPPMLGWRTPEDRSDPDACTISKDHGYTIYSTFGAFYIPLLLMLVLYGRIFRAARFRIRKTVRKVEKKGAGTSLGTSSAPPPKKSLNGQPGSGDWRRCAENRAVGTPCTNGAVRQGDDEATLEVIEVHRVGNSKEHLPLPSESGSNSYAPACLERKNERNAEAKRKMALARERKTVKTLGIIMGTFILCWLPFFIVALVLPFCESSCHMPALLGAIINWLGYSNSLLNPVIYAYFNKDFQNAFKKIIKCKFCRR
Procedure: The 5-HT1A receptor binding studies were carried out according to methods known and described in the literature (cf. S. J. Peroutka, J. Neurochem, 1986, 47, 529-40, M. J. Millan, J. Pharmacol. Exp. Ther., 1994, 268, 337-52). The results are also expressed as pKi.

5-HT1B receptor = target: T2, 5-HT1B receptor (Cavia porcellus, UniProt O08892); assay: 5-HT1B binding ([3H]-GR 125743, guinea-pig striatal membranes); conditions: [3H]-GR 125743 1 nM, guinea-pig striata membranes
T2 construct: After dissection of guinea-pig brains, the extracted striata are frozen; from tissue; host or cells: guinea-pig striatum membranes
Procedure: After dissection of guinea-pig brains, the extracted striata are frozen and then homogenised in 20 volumes (weight/volume) of 50 mM tris-HCl (pH 7.7 at room temperature) containing 4 mM CaCl2 and 0.1% ascorbic acid, and centrifuged at 48,000 g for 25 minutes at 4° C. The supernatant is separated and the precipitate is resuspended in the same volume of buffer before being incubated at 37° C. for 15 minutes in order to extract the endogenous serotonin. Finally, the suspension is centrifuged at 48,000 g for 25 minutes at 4° C. and the precipitate is resuspended in 80 volumes of buffer containing 10 μM pargyline.
The binding studies ([^3 H]-GR 125743) are carried out in triplicate in the following buffer: 50 mM tris-HCl (pH 7.7 at room temperature) containing 4 mM CaCl2, 0.1% ascorbic acid and 10 μM pargyline. […]
The data are analysed by non-linear regression using the PRISM programme (Graphpad Software Inc., San Diego, Calif.) in order to determine the Kd values (dissociation constant of the radioligand), the Bmax values (maximum number of sites) for the saturation experiments and the IC50 values (50% inhibiting concentration) and the Hill number for the competition experiments. The inhibition constant (Ki) is calculated according to the Cheng-Prussof equation : Ki =IC50 /1+L/Kd wherein L represents the concentration of the radioligand. The results are expressed as pKi =-log Ki.

5-HT1B = assay: Hypothermia test in the guinea-pig (antagonism of GR46611); type: in vivo; conditions: for ΔT ° C. (90 min) / ΔT ° C. (120 min): mean ± s.e.m.
Text: Using the hypothermia test on the guinea-pig (M. Stingle et al., J. of Psychopharmacology, 1994, 8, 14) it was possible to determine the agonist or antagonist nature of the products of the invention.
The guinea-pigs are kept in batteries of three, with free access to food and water, for one week before entering the study. One hour before each experiment, the guinea-pigs are placed in individual cages with free access to water. They are put back in their respective batteries at the end of each experiment. The temperature measurements are carried out using a digital thermometer and a rectal probe. Each guinea-pig is weighed, its base body temperature is taken and then the compound of the present invention to be evaluated is injected i.p. or p.o.
In the case of an agonist, the body temperature of each guinea-pig is taken every 30 minutes for 2 hours.
In the case of an antagonist, 15 minutes after injection each guinea-pig is injected again i.p. with the prototype agonist 5-HT1B : GR46611 (5 mg/kg/ml). The temperature is then taken every 30 minutes for 2 hours.
The criterion used for evaluation is the difference in temperature at a given time in relation to the base temperature. For each dose of product and for each time (t30, t60, t90, t120) the mean and the standard error of the mean are calculated.

[1] = tested on: extracellular concentration of serotonin; assay: Microdialysis experiment in rats (frontal cortex); type: in vivo; conditions: rat frontal cortex dialysate, subcutaneous route, compound alone
Text: Those tests, carried out in the frontal cortex, make it possible in the case where the products cause an increase in the release of serotonin to envisage their use for depression, impulsive disorders and obesity. If they cause a decrease in the release of serotonin they will be beneficial in the treatment of anxiety, panic attacks, sleep problems, cognitive problems and drug abuse. Finally, if they produce an increase in dopamine and/or noradrenalin, they will be beneficial in the treatment of schizophrenia and, as above, in the treatment of depression and cognitive problems.
The rats are anaesthetised with pentobarbital (60 mg/kg i.p.). […]
Simultaneous quantification of dopamine, norepinephrine and serotonin is carried out as follows: 20 μl of dialysis samples are diluted with 20 μl of mobile phase (NaH2 PO4 : 75 mM, EDTA: 20 μM, sodium dodecanesulphonate: 1 mM, methanol: 17.5%, triethylamine: 0.01%, pH: 5.70) and 33 μl are analysed by HPLC with an inverse phase column (Hypersil ODS 5 μm, C18, 150×4.6 mm, Thermo Separation Products, Les Ulis, France) thermo-statically controlled at 45° C. and quantified by way of a coulometric detector. […] The quantities of neurotransmitters are expressed as a function of the mean of the three base values. […]

[2] = 0.04 mg/kg i.p., then GR46611 5 mg/kg
[3] = 0.16 mg/kg i.p., then GR46611 5 mg/kg
[4] = injection 1 Vehicle i.p., injection 2 GR46611 5 mg/kg

T2 sequence (O08892 whole entry): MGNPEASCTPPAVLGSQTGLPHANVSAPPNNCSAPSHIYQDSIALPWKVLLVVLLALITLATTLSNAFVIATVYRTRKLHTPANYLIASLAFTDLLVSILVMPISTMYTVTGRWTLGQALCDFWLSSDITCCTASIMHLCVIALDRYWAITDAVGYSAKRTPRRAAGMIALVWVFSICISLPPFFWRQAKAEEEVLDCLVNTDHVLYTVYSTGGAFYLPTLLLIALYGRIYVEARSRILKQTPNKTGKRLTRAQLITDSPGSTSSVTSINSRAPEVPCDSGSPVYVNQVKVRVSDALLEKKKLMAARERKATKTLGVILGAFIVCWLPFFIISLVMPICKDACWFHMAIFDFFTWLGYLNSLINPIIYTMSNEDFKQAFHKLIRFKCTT

pKi (5-HT1A receptor): 5.50
SMILES: c1ccc2c(c1)CC2CNC1CCN(c2cccc3c2OCCO3)CC1 (stereo not shown) [Example 4, N-(benzocyclobuten-1-ylmethyl)-N-[1-(2,3-dihydro[1,4]benzodioxin-5-yl)piperid-4-yl]amine]

pKi (5-HT1B receptor): 8.00
SMILES: c1cc2c(c(N3CCC(NCCC45CC6CC(CC(C6)C4)C5)CC3)c1)OCCO2 [Example 9, N-[2-(adamant-1-yl)ethyl]-N-[1-(2,3-dihydro[1,4]benzodioxin-5-yl)-piperid-4-yl]amine]

SMILES: COc1cc2c(cc1OC)-c1cc(CCNC3CCN(c4cccc5c4OCCO5)CC3)cn1CC2 [Example 11, 5,6-dihydro-8,9-dimethoxy-2-{2-{[1-(2,3-dihydro[1,4]benzodioxin-5-yl)-piperid-4-ylamino]ethyl}}pyrrolo[2,1-a]isoquinoline]
ΔT ° C. (90 min) (5-HT1B; [2]): -1.10 ± 0.36 °C
ΔT ° C. (120 min) (5-HT1B; [2]): -1.43 ± 0.24 °C
ΔT ° C. (90 min) (5-HT1B; [3]): -0.57 ± 0.17 °C
ΔT ° C. (120 min) (5-HT1B; [3]): -0.67 ± 0.28 °C
agonist or antagonist nature (5-HT1B; hypothermia test, i.p. route): acts as an antagonist

SMILES: COc1ccc(CNC(=O)/C=C/c2ccc3[nH]cc(CCN(C)C)c3c2)cc1 [GR46611, reference compound]
ΔT ° C. (90 min) (5-HT1B; [4]): -1.05 ± 0.13 °C
ΔT ° C. (120 min) (5-HT1B; [4]): -1.40 ± 0.36 °C
extracellular concentration of serotonin [1]: decrease in the extracellular concentration of serotonin

Reference: patent US5965575A, “N-aryl piperidine compounds as 5HT1B antagonists” (Adir Et Compagnie, priority 1997, dated 1999)
